Test results published in ChEMBL document CHEMBL1155608, “Malyngamides O and P from the sea hare Stylocheilus longicauda” (J Nat Prod, 2000).

Assays:
Assay type in all cases: functional, cell-based
P388 = experiment: Cytotoxicity against mouse P388 cells
HT-29 = experiment: Cytotoxicity against human HT29 cells
A549 = experiment: Cytotoxicity against human A549 cells

Measured: IC50

CCCCCCC[C@@H](C/C=C/CCC(=O)N(C)C/C(=C\Cl)C/C(=C\C(=O)OC)OC)OC [MALYNGAMIDE O]
2 µg/mL: all assays above
